Reference: EP3683219A1, “COMPOUND INHIBITING BUTYRYLCHOLINESTERASE” (Julius-Maximilians-Universität Würzburg, priority 2019, dated 2020)
Read-outs that look alike come from different tables or passages of the source.

Assays:
hBChE [1] = target: T1, hBChE (Homo sapiens, UniProt P06276); assay: biochemical; format: biochemical; conditions: for fold lower activity than heptyl carbamate 7 (IC50 hBChE): compared with compound 7; for Selectivity index (IC50 hAChE/IC50 hBChE): hAChE over hBChE; for IC50 values (hBChE), in words: linker of 4 methylene groups
Experimental: (§1) For evaluation of enzyme inhibition, Ellman's colorimetric assay was conducted as described in Ellman, G. L., Arch. Biochem. Biophys 1958, 74, 443-450 and Ellman, G. L. et al., Biochem. Pharmacol. 1961, 7, 88-95. Therefor, 5,5'-dithiobis-(2-nitrobenzoic acid) (DTNB) solution, respective Cholinesterase (ChE) and inhibitor were incubated together and enzyme activity was measured after 20 min. The long incubation time was needed to allow the carbamate transfer between ChE and inhibitor.
(§2) The carbamate residue was altered systematically by changing residues in the terminal position of carbamate moiety and different flexible alkylene linkers were introduced. […] Nevertheless, it must be noted that IC50 values only serve as a first indicator of inhibitor affinity and selectivity. Due to the chemical reaction of carbamate transfer the enzyme inhibition is strongly time dependent. […]

hAChE = hAChE (Homo sapiens, UniProt P22303); assay: Ellman's colorimetric assay, inhibition of hAChE; format: biochemical; conditions: for IC50 / plC50 ± SEM (hAChE): enzyme activity measured after 20 min incubation; for inhibition at 100 µM / inhibition at 25 µM: read-out: inhibition of hAChE
Experimental: as §1, §2

hBChE [2] = target: T1, hBChE; assay: Decarbamoylation from hBChE, dilution experiments (recovery of enzyme activity, k4); format: biochemical; conditions: decarbamoylation rate, after 1 h incubation and 1:1000 dilution
Experimental: To further investigate the presence and nature of a peripheral binding site, also the hydrolysis of carbamate and the resulting release of the inhibitor from the enzyme was investigated by measuring the time dependent recovery of enzyme activity. To measure the decarbamoylation rate k4, dilution experiments were performed with hBChE following the procedure described in Sawatzky, E. et al., ChemMedChem 2016, 11, 1540-1550 and in Bartolucci, C. et al., Biochem. J. 2012, 444, 269-277. A high concentration of enzyme and inhibitor where incubated for 1 h. The concentration of inhibitor was chosen, such that > 85% of hBChE was inhibited through carbamate transfer. Then the mixture was diluted with buffer 1:1000 to a concentration at which the enzyme is not further carbamoylated. Due to the hydrolysis and release of the carbamate from the catalytic active serine enzyme activity was recovered slowly. This regeneration of the enzyme was monitored at different time points after the dilution. […] A = (1−e^(k4 ⋅t))⋅(1−A0) + A0 [formula] Table 4. Kinetic values for decarbamoylation from hBChE of selected compounds

hBChE [3] = target: T1, hBChE; assay: Carbamoylation kinetics on hBChE (time-dependent inhibition, Kc and k3); format: biochemical; conditions: for k3 [min^-1] hBChE: carbamoylation rate constant; for Kd: carbamoylation, pre-equilibrium constant
Text: As carbamate based inhibitors (C-X) show a pseudo irreversible manner of binding, the IC50 values must be seen critically because two chemical reactions determine them: Carbamate (C) transfer onto the enzyme (E) and carbamate hydrolysis. So, the Kc values, k3 and k4 rate constants according to below formula were investigated for some representative compounds (c.f. Fig. 3 and Fig. 4). [formula]
The mechanism of enzyme inhibition can be divided into three steps: In a pre-equilibrium, the carbamate based inhibitor C-X is bound to the enzyme E and a complex (EC-X) is formed reversible and can be characterized with Kc. Then the carbamate C is transferred onto the enzyme E and binds covalently to form E-C with the rate constant k3 while carrier scaffold X is released. Then E-C is hydrolyzed and enzyme activity is recovered and the amine C' is released with the rate constant k4, also called decarbamoylation rate.
For the determination of Kc and k3 a similar experimental setup was used compared to the evaluation of IC50 values, whereas enzyme activity was measured at various time points after addition of inhibitor.
A = A0 ⋅e^(−kobs ⋅t) + A∞ [formula]
Plotting the enzyme activity (in %) against the incubation times, lead to nonlinear time-dependent inhibition curves for the respective inhibitor concentrations whereby kobs can be determined with an exponential fit correspondent to equation (I).
Furthermore, a hyperbolic curve is obtained, plotting the rate constant kobs against the inhibitor concentration [I], which is described by equation (II), with the substrate concentration [S] and the Michaelis-Menten constant KM. kobs = (k3 ⋅[I])/(KC ⋅(1+([S])/(KM)) + [I]) [formula]
This equation (II) can be rearranged to the reciprocal of kobs, to get a linear plot: (1)/(kobs) = (KC ⋅(1+([S])/(KM)))/(k3)⋅(1)/([I]) + (1)/(k3) [formula]
Since the substrate butyrylthiocholine iodide is not added directly to the enzyme and the inhibitor, but after the incubation of enzyme with inhibitor, [S] can be set to zero, leading to Michaelis-Menten like equation IV. (1)/(kobs) = (KC)/(k3)⋅(1)/([I]) + (1)/(k3) [formula]
Relating to the linear equation (IV), KC can be established from the slope and carbamoylation rate constant k3 from the y-intercept.
As a chemical reaction is taking place, Kc must be seen as a 'real' measure for quantification of enzyme inhibitor interactions. Due to the high costs in measurements on hBChE only some representative compounds were chosen to evaluate also in kinetic studies based on the results from IC50 measurements (table 3). Table 3. Kinetic values for carbamoylation on hBChE for selected representative compounds

[4] = system: Aβ25-35-induced spontaneous alternation deficits; assay: Spontaneous alternation test in the Y-maze, Aβ25-35-injected mice; format: in vivo, male Swiss mice; conditions: 0.3-3 mg/kg ip o.d. day 1 to 7; Y-maze day 8
Experimental: 2013, 38, pages 1706-1723.
AD-like cognitive dysfunctions were induced in male Swiss mice, 6 weeks old, weighing 31-36 g by intracerebroventricular (icv) injection of the oligomerized Aβ25-35 peptide into the mouse brain on day 1.
Compounds were weighed, dissolved in pure DMSO at a concentration of 1 mg/ml and diluted into final test concentrations with saline. The final percentage of DMSO in saline was 60% for all compounds. Vehicle solution used for control groups was 60% DMSO in saline. Compounds were injected intraperitoneally (ip) from day 1 to 7 and behavioral studies were conducted between day 8 and 10. Spatial working memory was evaluated using a spontaneous alternation test in a Y-maze on day 8. The Y-maze is made of grey polyvinylchloride. Each arm is 40 cm long, 13 cm high, 3 cm wide at the bottom, 10 cm wide at the top, and converging at an equal angle. Each mouse is placed at the end of one arm and allowed to explore the maze freely for 8 min. The sequence of arm entries (including possible returns into the same arm) was checked visually and noted down. If the mouse enters all three arms on consecutive occasion, this is defined as an alternation. Therefore, the total number of arm entries minus two is also the maximum number of alternations. The percentage of alternation was calculated as (actual alternations / maximum alternations) x 100. Parameters for the evaluation of behavior are given as the percentage of alternation (memory index) and a total number of arm entries (exploration index).
Figs. 7a-h show the effect of the compounds on Aβ25-35-induced spontaneous alternation deficits in mice. […] Figs. 7a, c, e, g: spontaneous alternation performance; Figs. 7b, d, f, h: number of arm entries in the Y-maze test performed at day 8.

[5] = system: Aβ25-35-induced passive avoidance impairments; assay: Step-through passive avoidance test, Aβ25-35-injected mice; format: in vivo, male Swiss mice; conditions: 0.3-3 mg/kg ip o.d. day 1 to 7; retention day 10
[6] = enzyme activity measured after 20 min incubation, read-out: IC50 hBChE
[7] = enzyme activity measured after 20 min incubation

T1 sequence (P06276 29-602): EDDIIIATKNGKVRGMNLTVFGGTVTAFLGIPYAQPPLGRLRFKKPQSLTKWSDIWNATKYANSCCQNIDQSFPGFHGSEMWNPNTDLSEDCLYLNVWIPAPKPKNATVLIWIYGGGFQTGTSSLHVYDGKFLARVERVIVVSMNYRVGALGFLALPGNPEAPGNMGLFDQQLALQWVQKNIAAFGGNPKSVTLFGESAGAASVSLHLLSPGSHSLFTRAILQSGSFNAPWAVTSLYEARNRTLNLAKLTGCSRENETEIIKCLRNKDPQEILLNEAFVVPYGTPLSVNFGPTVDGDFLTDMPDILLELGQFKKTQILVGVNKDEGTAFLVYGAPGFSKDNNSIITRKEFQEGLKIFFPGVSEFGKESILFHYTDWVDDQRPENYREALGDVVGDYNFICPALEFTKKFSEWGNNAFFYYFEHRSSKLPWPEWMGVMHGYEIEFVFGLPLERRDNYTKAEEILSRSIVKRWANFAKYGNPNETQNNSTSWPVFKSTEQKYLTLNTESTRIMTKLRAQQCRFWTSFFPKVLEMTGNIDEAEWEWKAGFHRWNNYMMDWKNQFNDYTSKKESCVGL
Sequence of hAChE (P22303 32-614): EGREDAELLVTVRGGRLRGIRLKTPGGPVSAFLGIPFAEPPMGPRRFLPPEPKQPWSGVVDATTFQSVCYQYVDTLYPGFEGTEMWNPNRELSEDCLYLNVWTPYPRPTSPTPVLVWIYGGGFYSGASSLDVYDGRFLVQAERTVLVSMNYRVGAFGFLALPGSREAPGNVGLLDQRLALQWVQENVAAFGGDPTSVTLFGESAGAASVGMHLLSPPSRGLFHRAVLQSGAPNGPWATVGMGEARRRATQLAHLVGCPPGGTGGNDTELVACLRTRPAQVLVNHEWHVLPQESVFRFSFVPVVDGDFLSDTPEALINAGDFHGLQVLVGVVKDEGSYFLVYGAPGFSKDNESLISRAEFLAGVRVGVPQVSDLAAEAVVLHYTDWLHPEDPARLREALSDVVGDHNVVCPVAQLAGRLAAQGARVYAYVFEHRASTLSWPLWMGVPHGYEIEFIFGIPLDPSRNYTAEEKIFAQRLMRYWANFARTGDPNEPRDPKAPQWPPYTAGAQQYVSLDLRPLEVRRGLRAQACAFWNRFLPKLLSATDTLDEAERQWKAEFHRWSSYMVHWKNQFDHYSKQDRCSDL

SMILES | IC50 (hBChE [1]; [6]) | Selectivity index (IC50 hAChE/IC50 hBChE) (hBChE [1]) | k4 (hBChE [2]) | k3 [min^-1] hBChE (hBChE [3]) | Kd (hBChE [3]) | plC50 ± SEM (hBChE) (hBChE [1]; [7]) | also measured
CN1c2ccc(OC(=O)NCCCCCCN3CCCC3)cc2CN2CCc3ccccc3C21 (stereo not shown) [Compound 19o] | 34.3 nM | 26 | 0.98 ± 0.04 h⁻¹ | – | – | – | IC50 (hBChE [1]): 339 nM; fold lower activity than heptyl carbamate 7 (IC50 hBChE) (hBChE [1]): approximately 10 fold; IC50 (hAChE): 880 nM; plC50 ± SEM (hAChE) (hAChE): 6.06 ± 0.03
CN1c2ccc(OC(=O)NCCN3CCc4ccccc4C3)cc2CN2CCc3ccccc3C21 (stereo not shown) [Compound 19g] | 1720 nM | >10 | – | >20 min⁻¹ | > 200000 nM | 5.76 ± 0.05 | inhibition at 10 µM (hAChE): 10%
CN1c2ccc(OC(=O)NCCN3CCOCC3)cc2CN2CCc3ccccc3C21 (stereo not shown) [Compound 19a] | 7770 nM | >10 | – | – | – | 5.11 ± 0.04 | inhibition at 100 µM (hAChE; 100 µM): 17%
CN1c2ccc(OC(=O)NCCCCCCN3CCNCC3)cc2CN2CCc3ccccc3C21 (stereo not shown) [Compound 19r] | 80.6 nM | >100 | 1.44 ± 0.07 h⁻¹ | 0.32 ± 0.13 min⁻¹ | 121 ± 116 nM | 7.09 ± 0.03 | inhibition at 25 µM (hAChE; 25 µM): 16%
CN1c2ccc(OC(=O)NCCCCCCn3cnc4ccccc43)cc2CN2CCc3ccccc3C21 (stereo not shown) [Compound 19m] | 7.4 nM | >1000 | 0.45 ± 0.04 h⁻¹ | 0.26 ± 0.09 min⁻¹ | 7.7 ± 4.6 nM | 8.13 ± 0.04 | Kc values (hBChE), in words (hBChE [3]): one-digit nanomolar range; inhibition at 25 µM (hAChE; 25 µM): 44%
CN1c2ccc(OC(=O)NCCCCCCCCCCN3CCc4ccccc4C3)cc2CN2CCc3ccccc3C21 (stereo not shown) [Compound 19l] | 41.8 nM | >1000 | – | 0.25 ± 0.04 min⁻¹ | 5.68 ± 2.19 nM | 7.38 ±0.04 | Kc values (hBChE), in words (hBChE [3]): one-digit nanomolar range; inhibition at 10 µM (hAChE): 15%
CN1c2ccc(OC(=O)NCCCN3CCc4ccccc4C3)cc2CN2CCc3ccccc3C21 (stereo not shown) [Compound 19h] | 1160 nM | >10 | – | – | – | 5.94 ± 0.05 | inhibition at 10 µM (hAChE): 12%
CN1c2ccc(OC(=O)NCCCCCCCCCCN3CCOCC3)cc2CN2CCc3ccccc3C21 (stereo not shown) [Compound 19f] | 11.5 nM | >1000 | – | – | – | 7.94 ± 0.07 | inhibition at 100 µM (hAChE; 100 µM): 25%
CN1c2ccc(OC(=O)NCCCCCCn3ccnc3)cc2CN2CCc3ccccc3C21 (stereo not shown) [Compound 19n] | 13.3 nM | >1000 | 0.82 ± 0.03 h⁻¹ | 0.31 ± 0.15 min⁻¹ | 13.1 ± 14.4 nM | 7.88 ± 0.06 | Kc values (hBChE), in words (hBChE [3]): one-digit nanomolar range; inhibition at 25 µM (hAChE; 25 µM): 18%
CN1c2ccc(OC(=O)NCCCCCCCCN3CCc4ccccc4C3)cc2CN2CCc3ccccc3C21 (stereo not shown) [Compound 19k] | 32.6 nM | >1000 | 0.83 ± 0.06 h⁻¹ | – | – | 7.49 ± 0.03 | inhibition at 10 µM (hAChE): 11%
CN1c2ccc(OC(=O)NCCCCCCN3CCCCC3)cc2CN2CCc3ccccc3C21 (stereo not shown) [Compound 19p] | 83.7 nM | 14 | 0.129 ± 0.006 h⁻¹ | – | – | 7.08 ± 0.04 | fold lower activity than heptyl carbamate 7 (IC50 hBChE) (hBChE [1]): approximately 10 fold; IC50 (hAChE): 1200 nM; plC50 ± SEM (hAChE) (hAChE): 5.91 ± 0.03
CN1c2ccc(O)cc2CN2CCc3ccccc3C21 (stereo not shown) [Compound 13, reference compound] | – | – | – | – | – | – | effect on Aβ25-35-induced spontaneous alternation deficits [4]: not active; effect on Aβ25-35-induced passive avoidance deficits (step-through latency, retention) [5]: not active; BChE inhibition, in words (hBChE [1]): lacking BChE inhibition
CN1c2ccc(OC(=O)NCCCN3CCOCC3)cc2CN2CCc3ccccc3C21 (stereo not shown) [Compound 19b] | 938 nM | >100 | – | – | – | 6.03 ± 0.02 | inhibition at 100 µM (hAChE; 100 µM): 13%
CN1c2ccc(OC(=O)NCCCCN3CCc4ccccc4C3)cc2CN2CCc3ccccc3C21 (stereo not shown) [Compound 19i] | 192 nM | >100 | 0.028 ± 0.001 h⁻¹ | – | – | 6.72 ± 0.06 | IC50 values (hBChE), in words (hBChE [1]): two-digit nanomolar; inhibition at 10 µM (hAChE): 16%
CN1c2ccc(OC(=O)NCCCCN3CCOCC3)cc2CN2CCc3ccccc3C21 (stereo not shown) [Compound 19c] | 50.6 nM | >1000 | 0.48 ± 0.06 h⁻¹ | – | – | 7.30 ± 0.02 | IC50 values (hBChE), in words (hBChE [1]): two-digit nanomolar; inhibition at 100 µM (hAChE; 100 µM): 13%
CN1c2ccc(OC(=O)NCCCCCCN3CCN(C(=O)OC(C)(C)C)CC3)cc2CN2CCc3ccccc3C21 (stereo not shown) [Compound 19q] | 123 nM | >100 | – | 0.70 ± 0.31 min⁻¹ | 1550 ± 827 nM | – | IC50 (hBChE [1]): 794 nM; inhibition at 25 µM (hAChE): 15%
CN1c2ccc(OC(=O)NCCCCCCCCN3CCOCC3)cc2CN2CCc3ccccc3C21 (stereo not shown) [Compound 19e] | 19.8 nM | >1000 | 1.58 ± 0.15 h⁻¹ | – | – | – | IC50 (hBChE [1]): 85.1 nM; inhibition at 100 µM (hAChE): 22%
